Experimental findings from PubChem BioAssay (NCI) are described below.

Several values for one entry are separate records, joined by “and”; a condition that tells them apart may be missing. Identical values can stand only once.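 Values below derive from 48-hour exposures of cells grown in 96-well plates, with endpoints linearly interpolated between the two concentrations bracketing the appropriate inhibition level. At the GI50, growth is halved. Definition used: TGI = concentration required for complete inhibition of growth.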 Where a SMILES comes first, the peptide text is derived from it. Bridges are numbered along the chain shown (N, C = ends). Where only a bound is given, the exact number is not on record here.

Test systems include OVCAR-8 ovarian; MDA-N; K-562 leukemia; NCI-H23 lung; OVCAR-5 ovarian; EKVX NSCLC; SF-295 CNS; ACHN renal; IGROV1 ovarian; NCI-H226 lung.
Holding throughout (assay): NCI anticancer screen, dose series, 48 h

Consider `O=C(Oc1cncc(Cl)c1)c1cc2ccccc2sc1=O`, for which the TGI in the assay with OVCAR-8 ovarian, in the assay on MDA-N, in the assay with K-562 leukemia, in the assay with NCI-H23 lung, with OVCAR-5 ovarian and in the assay with EKVX NSCLC was greater than 100 µM each time. In addition, the TGI in the assay with SF-295 CNS is greater than 100 µM; in the assay with ACHN renal it was greater than 100 µM; with IGROV1 ovarian, greater than 100 µM; in the assay on NCI-H226 lung, 57.1 µM.

In the case of `CCN(CC)CC[n+]1ccc2c(C)c3[nH]c4ccccc4c3c(C)c2c1`, the GI50 in the assay on OVCAR-8 ovarian is 0.392 µM and 0.59 µM and 0.195 µM; in the assay on K-562 leukemia, 0.1 µM; with NCI-H23 lung, 0.394 µM; with OVCAR-5 ovarian it was 2.74 µM; in the assay on EKVX NSCLC, 1.48 µM; with SF-295 CNS, 1.28 µM. Besides, the GI50 is 0.365 µM and 1.21 µM and 0.786 µM with IGROV1 ovarian; 0.346 µM and 0.529 µM and 0.0944 µM in the assay with NCI-H226 lung. In addition, the TGI is 4.97 µM and 5.17 µM and 2.25 µM in the assay on OVCAR-8 ovarian; 1.99 µM in the assay on MDA-N; 5.43 µM and 3.49 µM and 2.19 µM with K-562 leukemia; 2.22 µM and 2.24 µM and 4.13 µM with NCI-H23 lung; 5.15 µM and 15 µM and 7.28 µM in the assay with OVCAR-5 ovarian; 8.97 µM and 16.4 µM and 4.14 µM with EKVX NSCLC. Also, the TGI in the assay on SF-295 CNS is 6.9 µM and 15.1 µM and 6.83 µM; with ACHN renal, 32.8 µM; in the assay on IGROV1 ovarian it was 3.45 µM and 11.2 µM and 5.33 µM; in the assay with NCI-H226 lung, 1.89 µM and 2.89 µM and 0.693 µM.

For the compound `COc1ccc(C2C3=C(COC3=O)Oc3cc4c(cc32)OCO4)cc1OC` (stereo not drawn), the TGI is greater than 43.3 µM with OVCAR-8 ovarian; 0.639 µM with MDA-N; greater than 26.8 µM in the assay with K-562 leukemia; greater than 100 µM with NCI-H23 lung; greater than 100 µM in the assay on OVCAR-5 ovarian; greater than 38 µM in the assay with EKVX NSCLC. The TGI in the assay with SF-295 CNS was 24 µM; in the assay with ACHN renal, greater than 100 µM; in the assay on IGROV1 ovarian, greater than 100 µM; in the assay on NCI-H226 lung it was greater than 100 µM.

Take `C/C(CC(O)(C(F)(F)F)C(F)(F)F)=N\O`: the TGI in the assay on OVCAR-8 ovarian, with MDA-N, with K-562 leukemia, in the assay with NCI-H23 lung, with OVCAR-5 ovarian and in the assay on EKVX NSCLC was greater than 10 µM in each case. Moreover, the TGI in the assay on SF-295 CNS, with ACHN renal, in the assay with IGROV1 ovarian and in the assay with NCI-H226 lung was greater than 10 µM in each case.

As to `Cc1cccc(NC(=S)Nc2cccc(Cl)c2)n1`, the TGI with OVCAR-8 ovarian, in the assay with MDA-N, in the assay on K-562 leukemia, with NCI-H23 lung, in the assay on OVCAR-5 ovarian and in the assay on EKVX NSCLC was greater than 100 µM each time. Further, the TGI in the assay on SF-295 CNS was greater than 78.4 µM; with ACHN renal it was greater than 100 µM; in the assay on IGROV1 ovarian, greater than 100 µM; in the assay with NCI-H226 lung, greater than 100 µM.

Consider `O=C1CC(c2cccc([N+](=O)[O-])c2)C2(C(=O)NC(=S)NC2=O)C(c2cccc([N+](=O)[O-])c2)C1` (stereo not drawn), for which the TGI is 43.6 µM in the assay with OVCAR-8 ovarian; greater than 100 µM in the assay with MDA-N; greater than 100 µM in the assay with K-562 leukemia; greater than 100 µM in the assay on NCI-H23 lung; greater than 100 µM in the assay on OVCAR-5 ovarian; 74.1 µM with EKVX NSCLC. Also, the TGI is greater than 100 µM with SF-295 CNS, greater than 100 µM in the assay on ACHN renal, greater than 100 µM in the assay on IGROV1 ovarian and 59.9 µM with NCI-H226 lung.

On to `C[C@H](CCc1nc(C#N)c(N)o1)[C@H]1CC[C@H]2[C@@H]3CCC4C[C@@H](O)CC[C@]4(C)[C@H]3C[C@@H](O)[C@]12C` (stereo partly drawn), for which the TGI is 20.3 µM in the assay on OVCAR-8 ovarian; 30.9 µM in the assay with MDA-N; 39.6 µM in the assay on K-562 leukemia; 32.7 µM with NCI-H23 lung; 35.1 µM in the assay on OVCAR-5 ovarian; 27.8 µM with EKVX NSCLC. The TGI in the assay on SF-295 CNS came to 30.5 µM; with ACHN renal, 28.6 µM; with IGROV1 ovarian, 25.6 µM; in the assay with NCI-H226 lung, 25.1 µM.

For `COC1(C)CCC(OS(C)(=O)=O)CO1` (stereo not drawn), the TGI in the assay with OVCAR-8 ovarian, in the assay on MDA-N, in the assay on K-562 leukemia, with NCI-H23 lung, in the assay on OVCAR-5 ovarian and in the assay with EKVX NSCLC was greater than 100 µM throughout. Moreover, the TGI in the assay on SF-295 CNS, in the assay on ACHN renal, with IGROV1 ovarian and in the assay with NCI-H226 lung was greater than 100 µM each time.

For `COC(=O)C1CCC(=O)NCCCCC(NC(=O)C(N)CC(=O)O)C(=O)N1` (stereo not drawn) (H-Asp-Lys-Glu-OMe; lactam 2-3; configuration not given here), the TGI with OVCAR-8 ovarian, in the assay with MDA-N, with K-562 leukemia, with NCI-H23 lung, in the assay on OVCAR-5 ovarian and with EKVX NSCLC was greater than 100 µM each time. Besides, the TGI with SF-295 CNS, with ACHN renal, with IGROV1 ovarian and in the assay with NCI-H226 lung was greater than 100 µM throughout.

Consider `CC1(C)Cc2ccccc2C(C)(Cl)C(=O)N1` (stereo not drawn), for which the TGI in the assay with OVCAR-8 ovarian, with MDA-N, with K-562 leukemia, in the assay on NCI-H23 lung, in the assay with OVCAR-5 ovarian and in the assay on EKVX NSCLC was greater than 10 µM throughout. Further, the TGI in the assay on SF-295 CNS, with ACHN renal, in the assay on IGROV1 ovarian and in the assay on NCI-H226 lung was greater than 10 µM in each case.

On to `CC12CC(c3ccccc3O1)C(C(=O)Nc1nccs1)C(=O)N2` (stereo not drawn), for which the TGI in the assay on OVCAR-8 ovarian is greater than 100 µM; in the assay on MDA-N it was greater than 100 µM; in the assay on K-562 leukemia, greater than 100 µM; in the assay on NCI-H23 lung, greater than 100 µM; in the assay on OVCAR-5 ovarian, greater than 100 µM; with EKVX NSCLC it was 90.7 µM. In addition, the TGI in the assay on SF-295 CNS, with ACHN renal, with IGROV1 ovarian and in the assay with NCI-H226 lung was greater than 100 µM throughout.

For `CC1=NN(c2ccccc2)C(=O)/C1=C\c1c(C)[nH]n(-c2ccccc2)c1=O`, the TGI in the assay on OVCAR-8 ovarian, in the assay on MDA-N, with K-562 leukemia, with NCI-H23 lung, in the assay with OVCAR-5 ovarian and with EKVX NSCLC was greater than 100 µM in each case. The TGI in the assay with SF-295 CNS, with ACHN renal, in the assay on IGROV1 ovarian and in the assay with NCI-H226 lung was greater than 100 µM each time.

Take `COc1ccc(-c2csc3c2[N+]2(C)C=CC=C2C3N2CCCC2)cc1` (stereo not drawn): the TGI with OVCAR-8 ovarian was greater than 100 µM; with MDA-N, greater than 100 µM; in the assay with K-562 leukemia, greater than 100 µM; with NCI-H23 lung, 44.7 µM; in the assay with OVCAR-5 ovarian, greater than 100 µM; with EKVX NSCLC it was greater than 100 µM. Moreover, the TGI in the assay with SF-295 CNS was 54 µM; in the assay with ACHN renal it was greater than 100 µM; in the assay with IGROV1 ovarian, 27.2 µM; in the assay on NCI-H226 lung, 26.5 µM.
